Assay results from patent US20220135667A1, “THERAPEUTIC COMBINATIONS AND COMPOSITIONS FOR THE TREATMENT OF INFLAMMATORY BOWEL DISEASE (II)” (RIJSUNIVERSITEIT GRONINGEN, priority 2019, published 2022).

Test system: CD patients
Assay: prospective clinical intervention study of riboflavin in CD patients
Format: in vivo, human
Details: 100 mg riboflavin daily for 3 weeks
Method: In a prospective clinical intervention study, 70 CD patients were included and divided into two groups with (active) and without (quiescent) evidence of mucosal inflammation (defined by fecal calprotectin (FC) cut-off value: 200 μg/g). Patients received 100 mg riboflavin daily for 3 weeks. Clinical disease activity (Harvey-Bradshaw Index: HBI), inflammatory biomarkers (including interleukin 2) as well as fecal microbial composition (including pathogenic Enterobacteriaceae including E. coli) were analyzed before and after riboflavin intervention.

Cc1cc2nc3c(=O)[nH]c(=O)nc-3n(C[C@H](O)[C@H](O)[C@H](O)CO)c2cc1C [riboflavin]
fecal calprotectin (patients with TNF-alpha inhibitor treatment (FIG. 4)): further reduction | proinflammatory cytokine IL2 (patients with TNF-alpha inhibitor treatment (FIG. 5)): further reduction | Enterobacteriaceae including E. coli (fecal microbial composition) (patients with TNF-alpha inhibitor treatment (FIG. 6)): further reduction | clinical disease activity (Harvey-Bradshaw Index: HBI) (patients with TNF-alpha inhibitor treatment, both active and quiescent disease, before vs after (FIG. 1-3)): further reduced | clinical disease activity (Harvey-Bradshaw Index: HBI) (patients with mesalazine treatment (FIG. 1-3)): not the case (not as pronounced as)
